Results published in patent publication US9150495B2, “Polyamine transporter selective compounds as anti cancer agents” (University of Central Florida Research Foundation, Inc., priority 2007, dated 2015).
Structures can show the parent of a compound that is named as a salt.

Assays:
[1] = molecular target: polyamine transporter (PAT); assay: PAT binding affinity, competition with radiolabeled spermidine in L1210; parameters: species or system mouse; conditions: L1210 cells
Description: “Ki value” reflects the affinity of the drug architecture for the polyamine transporter. The lower the value of the Ki, the higher the affinity of the drug for the polyamine transporter.
(§1) Cytotoxicity experiments were also performed in murine leukemia cells (L1210, Table 3) with and without the presence of difluoromethylornithine (DFMO), a known inhibitor of ornithine decarboxylase (the enzyme responsible for polyamine biosynthesis). Typically, when one blocks the ability of cells to synthesize polyamines, the cells respond by increasing their import of extracellular polyamines via PAT. Therefore, if our drugs are PAT-selective we should see a lowering of their respective IC50 values in the presence of DFMO, a molecule which facilitates the drug's import. […] Ki values indicate the binding affinity of the compounds for the PAT. Using competition experiments with radiolabeled spermidine, we were able to rank the binding affinity of the compounds for the PAT. Low Ki values mean the compound has a high binding affinity for the PAT.

L1210 cells [2] = assay: L1210 cytotoxicity in presence of DFMO; format: cell-based, mouse; conditions: in the presence of DFMO
Description: (§2) L1210 cells are mouse leukemia cells and are a standard well used benchmark for evaluating cytotoxicity of new drug systems, especially polyamine containing drugs.
as §1

CHO cells = assay: CHO wild type cytotoxicity (active polyamine transport); format: cell-based, Chinese hamster; conditions: for IC50: Cricetulus griseus, CHO wild type cells, active PAT; for CHOMG/CHO IC50 Ratio: IC50 in CHOMG / IC50 in CHO, PAT selectivity
Description: (§3) Chinese hamster ovary cells (CHO cells) have an active polyamine transporter. This cell type is very susceptible to drugs which use the polyamine transporter system to gain access to cells (i.e. polyamine conjugates). The PAT targeting selectivity was determined using a Chinese hamster cell assay. The CHO wild type cells have active polyamine transport activity and therefore should be very susceptible to the polyamine conjugate and give low IC50 values. […] The lower the value the more cytotoxic the drug is to that cell type. In contrast, the mutant CHO-MG cells, which have no PAT activity are not as sensitive to the polyamine conjugate (which is unable to enter these cells via the defective PAT) and give higher IC50 values. We express these as a ratio of the IC50 value in CHOMG/IC50 value in CHO. The higher the ratio the more PAT selective is the polyamine conjugate drug. […] Cytotoxicity experiments were also performed in murine leukemia cells (L1210, Table 3) with and without the presence of difluoromethylornithine (DFMO), a known inhibitor of ornithine decarboxylase (the enzyme responsible for polyamine biosynthesis). Typically, when one blocks the ability of cells to synthesize polyamines, the cells respond by increasing their import of extracellular polyamines via PAT. Therefore, if our drugs are PAT-selective we should see a lowering of their respective IC50 values in the presence of DFMO, a molecule which facilitates the drug's import. […] Ki values indicate the binding affinity of the compounds for the PAT. Using competition experiments with radiolabeled spermidine, we were able to rank the binding affinity of the compounds for the PAT. Low Ki values mean the compound has a high binding affinity for the PAT.

L1210 cells [3] = assay: L1210 cytotoxicity; format: cell-based; conditions: Mus musculus, without DFMO
Description: as §2, §1

CHO-MG cells = assay: CHO-MG cytotoxicity (PAT-deficient mutant cells); format: cell-based, Chinese hamster; conditions: Cricetulus griseus, no PAT activity, read-out: CHOMG IC50
Description: as §3, with “which are chemically mutated to be” for “(CHO cells) have an active”, “transport-deficient will be referred to as the CHO-MG” for “transporter. This”, “line. […]” for “type is very susceptible to drugs which use the polyamine transporter system to gain access to cells (i.e. polyamine conjugates).”

[4] = molecular target: Topoisomerase IIalpha (Topo IIa) (Homo sapiens, UniProt P11388); assay: Topo II kDNA decatenation assay (agarose gel); format: biochemical
Description: Thus the linear polyamine-anthracene conjugates herein disclosed (e.g., compound 4) were evaluated as Topo II inhibitors. A well established in vitro Topo II assay (as used previously) allowed us to determine whether these new conjugates (previously described compound A and novel compound 4 of the present invention) have the ability to inhibit Topo II by preventing Topo IIa from decatenating (i.e., disentangling) kinetoplast DNA (kDNA).
A negative image of agarose gel electrophoresis is visualized under UV light. Drugs were incubated with kDNA (200 ng) and Topo IIa (4 units) in reaction buffer prior to loading onto the gel. Neg. Control (−): kDNA only; Pos. Control (+): kDNA+Topo II (without conjugate); Inhibitory Control (B, rightmost lane): Berenil (50 μM). All other lanes contain the corresponding conjugate at the listed μM concentrations. Positive Topo II activity is shown by the formation of nicked open circular (NOC) DNA (middle band) and covalently closed circular (CCC) DNA (bottom band). Inhibition is shown by the negative activity of Topo II where kDNA (top band) is not decatenated and remains in the well.
When kDNA was not incubated with drug and Topo II (negative control), no migration occurred on the gel and the kDNA remained in the well as expected, which was indicated by the single top band visualized in the well. When kDNA was incubated with Topo II in the absence of drug, the top band in the well disappeared completely while two bands representing the two decatenated products could be seen.

Sequence of Topoisomerase IIalpha (Topo IIa) (P11388 whole entry): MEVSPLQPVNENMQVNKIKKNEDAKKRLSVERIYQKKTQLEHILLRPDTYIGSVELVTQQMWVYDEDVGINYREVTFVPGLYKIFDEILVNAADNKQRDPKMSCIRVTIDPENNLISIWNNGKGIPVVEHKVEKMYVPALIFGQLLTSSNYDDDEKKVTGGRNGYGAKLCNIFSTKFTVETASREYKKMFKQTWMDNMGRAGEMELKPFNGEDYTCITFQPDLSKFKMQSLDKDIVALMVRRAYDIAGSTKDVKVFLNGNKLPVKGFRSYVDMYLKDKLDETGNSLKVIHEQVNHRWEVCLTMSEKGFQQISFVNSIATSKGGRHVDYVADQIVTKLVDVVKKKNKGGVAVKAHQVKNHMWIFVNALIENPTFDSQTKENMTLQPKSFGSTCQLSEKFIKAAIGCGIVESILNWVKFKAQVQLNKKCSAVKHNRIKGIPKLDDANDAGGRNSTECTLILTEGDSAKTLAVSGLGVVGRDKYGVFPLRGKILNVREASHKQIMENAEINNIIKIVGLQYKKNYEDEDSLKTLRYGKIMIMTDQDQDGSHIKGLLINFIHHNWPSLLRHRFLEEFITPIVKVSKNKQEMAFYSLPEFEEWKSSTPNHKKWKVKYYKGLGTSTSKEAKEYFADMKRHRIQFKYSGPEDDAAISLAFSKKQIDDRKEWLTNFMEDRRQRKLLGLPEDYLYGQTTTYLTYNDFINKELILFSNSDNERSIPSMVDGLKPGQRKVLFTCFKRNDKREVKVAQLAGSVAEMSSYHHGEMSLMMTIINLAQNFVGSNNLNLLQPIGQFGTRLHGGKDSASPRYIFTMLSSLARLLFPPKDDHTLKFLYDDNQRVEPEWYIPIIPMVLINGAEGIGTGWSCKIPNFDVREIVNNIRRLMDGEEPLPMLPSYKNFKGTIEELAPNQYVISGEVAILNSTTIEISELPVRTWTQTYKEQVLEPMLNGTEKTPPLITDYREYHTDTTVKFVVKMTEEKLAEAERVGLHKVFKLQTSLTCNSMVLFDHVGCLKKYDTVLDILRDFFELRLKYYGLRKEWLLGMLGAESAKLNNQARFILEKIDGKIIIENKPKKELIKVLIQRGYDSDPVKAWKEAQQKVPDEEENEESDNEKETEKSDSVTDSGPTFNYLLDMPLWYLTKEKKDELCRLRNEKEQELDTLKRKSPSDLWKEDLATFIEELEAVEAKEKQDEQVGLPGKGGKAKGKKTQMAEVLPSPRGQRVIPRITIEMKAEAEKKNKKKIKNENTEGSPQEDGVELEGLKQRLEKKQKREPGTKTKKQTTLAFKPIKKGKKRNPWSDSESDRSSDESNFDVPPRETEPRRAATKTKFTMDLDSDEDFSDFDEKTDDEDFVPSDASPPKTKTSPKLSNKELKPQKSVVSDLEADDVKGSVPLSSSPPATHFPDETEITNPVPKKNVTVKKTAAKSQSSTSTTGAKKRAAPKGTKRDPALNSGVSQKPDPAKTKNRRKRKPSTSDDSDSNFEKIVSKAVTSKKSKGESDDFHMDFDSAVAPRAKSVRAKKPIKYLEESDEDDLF

| Structure (SMILES) | Ki [1] [nM] | IC50 (L1210 cells [2]; Mus musculus, L1210) [nM] | IC50 (CHO cells) [nM] | CHOMG/CHO IC50 Ratio (CHO cells) | IC50 (L1210 cells [3]) [nM] | IC50 (CHO-MG cells) [nM] | IC50 (L1210 cells [2]) [nM] | Topo II inhibition (kDNA remaining undecatenated) ([4]; 5 μM, kDNA 200 ng, Topo IIa 4 units) | Type of Topo II inhibition ([4]; inhibition increased with drug concentration) | CHOMG/CHO IC50 Ratio (CHO cells; Hydrochloride salt) | Topo II inhibition (kDNA remaining in well) ([4]; 50 μM, inhibitory control) |
| --- | --- | --- | --- | --- | --- | --- | --- | --- | --- | --- | --- |
| Cl.NCCCCNCCCCNCc1ccc(CNCCCCNCCCCN)cc1 [Compound 10, N-(4-Amino-butyl)-N′-(4-{[4-(4-amino-butylamino)-butylamino]-methyl}-benzyl)-butane-1,4-diamine, Hydrochloride salt] | 520 ± 110 | 360 ± 30 | 74 ± 10 | 677 | 160 ± 10 | 50200 ± 3800 | – | – | – | – | – |
| NCCCCNCCCCNCc1cc(CNCCCCNCCCCN)cc(CN(CCCCN)CCCCN)c1 [Compound 15, N-(4-Amino-butyl)-N-(3,5-bis-{[4-(4-amino-butylamino)-butylamino]-methyl}-benzyl)-butane-1,4-diamine, nona-Hydrochloride Salt] | 490 ± 20 | – | > 500000 | – | 122000 ± 8100 | > 500000 | 49300 ± 10000 | – | – | – | – |
| Cl.NCCCCNCCCCNCc1ccc(CNCCCCNCCCCN)c2ccccc12 [Compound 7, N-(4-Amino-butyl)-N′-(4-{[4-(4-amino-butylamino)-butylamino]-methyl}-naphthalen-1-ylmethyl)-butane-1,4-diamine, Hydrochloride salt] | 170 ± 20 | – | 120 ± 30 | >833 | 250 ± 80 | > 100000 | – | – | – | – | – |
| Cl.NCCCCNCCCCNCc1c2ccccc2c(CNCCCCNCCCCN)c2ccccc12 [Compound 4, N-(4-Amino-butyl)-N′-(10-{[4-(4-amino-butylamino)-butylamino]-methyl}-anthracen-9-ylmethyl)-butane-1,4-diamine, Hydrochloride salt] | 390 ± 50 | 220 ± 80 | 45 ± 3 | – | 780 ± 70 | > 100000 | – | good inhibition | catalytic Topo-II inhibitors | >2222 | – |
| CC(=O)NCC(=O)O.CC(=O)NCC(=O)O.N=C(N)c1ccc(N=NNc2ccc(C(=N)N)cc2)cc1 [Berenil, reference compound] | – | – | – | – | – | – | – | – | – | – | good inhibition |
